Where two headings read alike, the source gives them in different places.
What was measured:
[1] = In vitro test on human Caco-2 cells, cellular transport A to B; assay type: in vitro ADME; settings: human, Caco-2, drug incubated and measured, A to B, 1 or 3 μM, read-out: Papp, the drug after incubation of the drug
Protocol: (§1) The cellular transport from A to B (Apical to Basolateral) of the phosphate compounds of formula (I) and the compounds of formula (I′) (corresponding drugs) is studied in human Caco-2 cells. Each compound is deposited apically at 1 or 3 μM (in duplicate) and then incubated for 120 minutes.
(§2) Several samples are taken during the experiment; • apically: immediately after deposition (t=0) and at 120 minutes • basolaterally: at the end of the experiment (120 minutes)
(§3) The concentrations of the phosphate compound (prodrug) and/or of its hydroxylated homologue (drug) are determined by liquid chromatography coupled with mass spectrometric detection (LC-MS/MS). The limit of quantification for both entities is 2 ng/mL.
(§4) The apparent permeability (Papp) and the predicted absorbed fraction (Fabs) in humans are calculated for the prodrug, for the drug after incubation of the prodrug and for the drug after incubation of the drug (Hubatsch et al, Nat Protoc. 2007; 2(9), 2111-2119).
(§5) The experiment yield, which corresponds to the ratio (in percent) of the total amount of compound found at the end of the experiment versus that incubated, is also calculated.

human Caco-2 cells = test: as above; assay type: in vitro ADME; settings: 120 minutes; for Yield (experiment yield), the drug after incubation of the prodrug / Fabs (predicted absorbed fraction in humans), the drug after incubation of the prodrug / Papp, compound measured: the prodrug itself / Yield (experiment yield), compound measured: the prodrug itself: prodrug incubated; for Yield (experiment yield), the drug after incubation of the prodrug / Fabs (predicted absorbed fraction in humans), the drug after incubation of the prodrug: corresponding drug measured; for Papp, compound measured: the prodrug itself: deposited apically at 1 or 3 μM; for Yield (experiment yield), compound measured: the prodrug itself: total amount found at the end versus incubated
Protocol: as §1, §2, §3, §4, §5

[2] = Solubility in aqueous medium buffered to physiological pH (phosphate 0.33M, pH 7.4); assay type: physicochemical
Protocol: The solubilities of the compounds were also measured in a medium buffered to physiological pH (cf. Table 3).

[3] = Pharmacokinetic profile / in vivo conversion after oral administration to SCID mice (plasma, LC-MS/MS); parameters: species or system female SCID mice; settings: aqueous formulation (1M sodium carbonate)
Protocol: The pharmacokinetic profile of the phosphate compounds of formula (I) is evaluated in a lipid formulation and in aqueous solution in female SCID mice. This is compared to the pharmacokinetic profile of compounds of formula (I′) in a lipid formulation. More specifically, 4-[{[3-(6-{[(3S)-3-(morpholin-4-ylmethyl)-3,4-dihydroisoquinolin-2(1H)-yl]-carbonyl}-1,3-benzodioxol-5-yl)-5,6,7,8-tetrahydroindolizin-1-yl]carbonyl}(phenyl)-amino]phenyl disodium phosphate (also referred to as the compound of Example 1) was tested and compared to N-(4-hydroxyphenyl)-3-{6-[((3S)-3-(4-morpholinylmethyl)-3,4-dihydro-2(1H)-isoquinolinyl)carbonyl]-1,3-benzodioxol-5-yl}-N-phenyl-5,6,7,8-tetrahydro-1-indolizine carboxamide (also referred to as the drug from Example 1).
The compound of Example 1 is prepared in a mixture of anhydrous ethanol/polyethylene glycol 300/water (10/40/50, v/v/v) intended for administration by the p.o. route. The study is carried out in 2 groups of SCID mice to which the compound of Example 1 is administered under the following conditions: • Group 1: 3 mg/kg p.o. (gavage, 10 mL/kg), • Group 2: 25 mg/kg p.o. (gavage, 10 mL/kg).
Blood samples are taken at the following points in time (3 samples per animal and 3 animals for each point in time): 0.25 hr, 0.5 hr, 1 hr, 2 hrs, 6 hrs and 24 hrs after oral administration.
The compound of Example 1 is also administered by the oral route in an aqueous medium to SCID mice, under the following conditions: • Group 1: 30 mg/kg p.o. dissolved in 1 mM sodium carbonate solution (gavage, 10 mL/kg), • Group 2: 100 mg/kg p.o. in water (gavage, 10 mL/kg).
Blood samples are taken at the following points in time (3 animals for each point in time and 1 sample per animal): 0.25 hr, 0.5 hr, 1 hr, 2 hrs, 4 hrs, 6 hrs and 24 hrs after oral administration.
For all formulations of the compound of Example 1, the blood thereby collected is centrifuged and the plasma is transferred to tubes containing 1M hydrochloric acid. The plasma concentrations of the phosphate compound (prodrug) and its hydroxylated homologue (drug) are determined simultaneously using a method of liquid chromatography coupled with mass spectrometric detection (TFC-LC-MS/MS). The limit of detection for both entities is 0.5 ng/mL.
The drug from Example 1 is prepared in a mixture of anhydrous ethanol/polyethylene glycol 300/water (10/40/50, v/v/v) intended for administration by the p.o. route. The study is carried out in several groups of SCID mice to which the drug from Example 1 is administered under the following conditions: • Group 1: 3 mg/kg p.o. (gavage, 10 mL/kg), • Group 2: 30 mg/kg p.o. (gavage, 10 mL/kg), • Group 3: 25 mg/kg p.o. (gavage, 10 mL/kg), • Group 4: 100 mg/kg p.o. (gavage, 10 mL/kg).
Blood samples are taken at the following points in time (3 animals for each point in time and 3 samples per animal for Groups 1-2 and 1 sample per animal for Groups 3 and 4): • p.o.: before administration and then 0.25 hr, 0.5 hr, 0.75 hr, 1 hr, 2 hrs, 4 hrs, 6 hrs, 8 hrs, 16 hrs and 24 hrs after oral administration at 3 and 30 mg/kg, • p.o.: 0.5 hr, 2 hrs, 6 hrs, 16 hrs and 24 hrs after oral administration at 25 mg/kg and 0.5 hr, 1 hr, 2 hrs, 6 hrs, 16 hrs, 30 hrs and 48 hrs after oral administration at 100 mg/kg.
The plasma from the blood samples collected after administration of the lipid formulations of the drug from the compound of Example 1 are analysed by liquid chromatography coupled with mass spectrometric detection. The limit of quantification of the drug from the compound of Example 1 is less than or equal to 0.5 ng/mL.
Non-compartmental pharmacokinetic analysis is carried out on the mean values of the plasma concentrations of the compounds tested. […]

[4] = phosphate 0.33M, pH = 7.4, 10 μM
[5] = phosphate 0.33M, pH = 7.4, 20 μM
[6] = phosphate 0.33M, pH = 7.4, 50 μM
[7] = phosphate 0.33M, pH = 7.4, 100 μM
[8] = Example 20 administered 25 mg/kg p.o.
[9] = Example 25 administered 3 mg/kg p.o.
[10] = Example 25 administered 25 mg/kg p.o.

Row | SMILES | Solubility at 10 μM [2, 4] | Solubility at 20 μM [2, 5] | Solubility at 50 μM [2, 6] | Solubility at 100 μM [2, 7] | Yield (experiment yield), the drug after incubation of the prodrug (human Caco-2 cells) | Fabs (predicted absorbed fraction in humans), the drug after incubation of the prodrug (human Caco-2 cells; A to B, 1 or 3 μM) | Yield (experiment yield), compound measured: the prodrug itself (human Caco-2 cells) | also measured
1 | C[C@@H]1Cc2ccccc2CN1C(=O)c1cc2c(cc1-c1cc(C(=O)N(c3ccc(O)cc3)c3cnc4c(ccn4C)c3)c3ccccn13)OCO2 [Drug from Example 4, N-(4-Hydroxyphenyl)-3-(6-{[(3R)-3-methyl-3,4-dihydroisoquinolin-2(1H)-yl]carbonyl}-1,3-benzodioxol-5-yl)-N-(1-methyl-1H-pyrrolo[2,3-b]pyridin-5-yl)-indolizine-1-carboxamide] |  |  |  |  |  |  |  | Papp A→B at 120 min [1]: 0.21 ×10⁻⁶ cm/s; Yield (experiment yield), the drug after incubation of the drug (human Caco-2 cells; drug incubated and measured): Yield (%) = 20; Fabs (predicted absorbed fraction in humans), the drug after incubation of the drug (human Caco-2 cells; drug incubated and measured, A to B, 1 or 3 μM): Fabs (%) = 46
2 | [2H]C([2H])([2H])n1cc(N(C(=O)c2cc(-c3cc(Cl)ccc3C(=O)N3Cc4ccccc4C[C@H]3CN3CCOCC3)n(C)c2C)c2ccc(O)cc2)cn1 [Drug from Example 19, 5-(5-Chloro-2-{[(3S)-3-(morpholin-4-ylmethyl)-3,4-dihydroisoquinolin-2(1H)-yl]carbonyl}phenyl)-N-(4-hydroxyphenyl)-1,2-dimethyl-N-[1-(trideuteriomethyl)-1H-pyrazol-4-yl]-1H-pyrrole-3-carboxamide] | Soluble | Soluble | Soluble | Insoluble |  |  |  | 
3 | C[C@@H]1Cc2ccccc2CN1C(=O)c1cc2c(cc1-c1cc(C(=O)N(c3ccc(OP(=O)([O-])[O-])cc3)c3cnc4c(ccn4C)c3)c3ccccn13)OCO2.[Na+].[Na+] [Example 4, 4-[{[3-(6-{[(3R)-3-Methyl-3,4-dihydroisoquinolin-2(1H)-yl]carbonyl}-1,3-benzodioxol-5-yl)indolizin-1-yl]carbonyl}(1-methyl-1H-pyrrolo[2,3-b]pyridin-5-yl)amino]phenyl disodium phosphate] |  |  |  |  | Yield (%) = 38 | Fabs (%) = 69 | Yield (%) = 1.3 | Papp, compound measured: the prodrug itself (human Caco-2 cells; A to B): Papp (10^−6 cm/s) = 0.33
4 | C[C@@H]1Cc2ccccc2CN1C(=O)c1cc2c(cc1-c1cc(C(=O)N(c3ccncc3)c3ccc(OP(=O)([O-])[O-])cc3)c3ccccn13)OCO2.[Na+].[Na+] [Example 5, 4-[{[3-(6-{[(3R)-3-Methyl-3,4-dihydroisoquinolin-2(1H)-yl]carbonyl}-1,3-benzodioxol-5-yl)indolizin-1-yl]carbonyl}(pyridin-4-yl)amino]phenyl disodium phosphate] |  |  |  |  | Yield (%) = 78 | Fabs (%) = 86 | Yield (%) = 1.2 | Papp, compound measured: the prodrug itself (human Caco-2 cells; A to B): Papp (10^−6 cm/s) = 0.26
5 | [2H]C([2H])([2H])n1cc(N(C(=O)c2cc(-c3cc(Cl)ccc3C(=O)N3Cc4ccccc4C[C@H]3CN3CCOCC3)n(C)c2C)c2ccc(OP(=O)([O-])[O-])cc2)cn1.[Na+].[Na+] [Example 19, 4-({[5-(5-Chloro-2-{[(3S)-3-(morpholin-4-ylmethyl)-3,4-dihydroisoquinolin-2(1H)-yl]carbonyl}phenyl)-1,2-dimethyl-1H-pyrrol-3-yl]carbonyl}[1-(trideuteriomethyl)-1H-pyrazol-4-yl]amino)phenyl disodium phosphate] |  |  |  |  |  |  |  | Solubility at 10 μM [2]: Soluble; Solubility at 20 μM [2]: Soluble; Solubility at 50 μM [2]: Soluble; Solubility at 100 μM [2]: Soluble
6 | Cc1c(N(C(=O)c2cc(-c3cc(Cl)ccc3C(=O)N3Cc4ccccc4C[C@H]3CN3CCOCC3)n(C)c2C)c2ccc(OP(=O)([O-])[O-])cc2)cc(C#N)n1C.[Na+].[Na+] [Example 20, 4-[{[5-(5-Chloro-2-{[(3S)-3-(morpholin-4-ylmethyl)-3,4-dihydroisoquinolin-2(1H)-yl]carbonyl}phenyl)-1,2-dimethyl-1H-pyrrol-3-yl]carbonyl}(5-cyano-1,2-dimethyl-1H-pyrrol-3-yl)amino]phenyl disodium phosphate] | Soluble | Soluble | Soluble | Soluble | Yield (%) = 100 | Fabs (%) = 16 | Yield (%) = 0.94 | Cmax, compound measured: Example 20 ([3]; Example 20 administered 3 mg/kg p.o., BLQ: below the limit of quantification): Cmax (ng/mL) = BLQ; AUCt, compound measured: Example 20 [3, 8]: AUCt (ng · h/mL) = 106; Cmax, compound measured: Example 20 [3, 8]: Cmax (ng/mL) = 127; Tmax, compound measured: Example 20 [3, 8]: Tmax (h) = 0.25
7 | Cc1c(N(C(=O)c2cc(-c3cc(F)ccc3C(=O)N3Cc4ccccc4C[C@H]3CN3CCOCC3)n(C)c2C)c2ccc(OP(=O)([O-])[O-])cc2)cc(C#N)n1C.[Na+].[Na+] [Example 25, 4-[(5-Cyano-1,2-dimethyl-1H-pyrrol-3-yl){[5-(5-fluoro-2-{[(3S)-3-(morpholin-4-ylmethyl)-3,4-dihydroisoquinolin-2(1H)-yl]carbonyl}phenyl)-1,2-dimethyl-1H-pyrrol-3-yl]carbonyl}amino]phenyl disodium phosphate] | Soluble | Soluble | Soluble | Soluble | Yield (%) = 48 | Fabs (%) = 20 | Yield (%) = 33 | AUCt, compound measured: Example 25 [3, 9]: AUCt (ng · h/mL) = 14; Cmax, compound measured: Example 25 [3, 9]: Cmax (ng/mL) = 17; Tmax, compound measured: Example 25 [3, 9]: Tmax (h) = 1.0; AUCt, compound measured: Example 25 [3, 10]: AUCt (ng · h/mL) = 114; Cmax, compound measured: Example 25 [3, 10]: Cmax (ng/mL) = 106; Tmax, compound measured: Example 25 [3, 10]: Tmax (h) = 1.0
